Measurements published in patent publication US20250108038A1 (priority 2023, published 2025).
“And” between values parts separate entries of the source, which are not always exact repeats. Identical values can stand only once.

Test: Pharmacokinetics after single oral administration to beagle dogs;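 for AUC0-inf of Compound A (as titled): compound A is measured in plasma as a metabolite of the dosed analog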;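 for AUC0-last of Compound A (as titled): compound A is measured in plasma as a metabolite of the dosed analog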;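 for Tlast of Compound A (as titled): compound A is measured in plasma as a metabolite of the dosed analog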;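 for Tmax of Compound A (as titled): compound A is measured in plasma as a metabolite of the dosed analog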
Type: in vivo
Settings: for Cmax of the analog (Compound I-17/I-19) / T1/2 of the analog (Compound I-17/I-19) / Tmax of the analog (Compound I-17/I-19): oral 10 mg/kg; for plasma concentration of Compound I-17/I-19 (as titled): single PO 80 mg/kg (as titled)
Experimental: The concentrations of the analytes in the plasma were quantified by liquid chromatography tandem mass spectrometry (LC-MS/MS).
The bioanalytical assay provided a lower limit of quantification (LLOQ) of 1.0 ng/mL and an upper limit of quantification (ULOQ) of 3000 ng/mL for all the analytes. The data of plasma concentration vs. time were analyzed using Phoenix WinNonlin 8.3 to determine the PK properties of the analytes.
The test articles were administered orally by gavage. The nominal dose volume was 5 mL/kg for both analogs.
The observation included appearance, behavior, morbidity and mortality.
Approximately 0.5 mL blood was collected at each scheduled time point from the peripheral veins.
The plasma samples were placed in microcentrifuge tubes and stored at −70+10° C. until analysis.

[1] = after single PO 10 mg/kg of Compound I-17/I-19, female individual
[2] = after single PO 10 mg/kg of Compound I-17/I-19, female individual, 10 mg/kg
[3] = after single PO 10 mg/kg of Compound I-17/I-19, female mean
[4] = after single PO 10 mg/kg of Compound I-17/I-19, male individual
[5] = after single PO 10 mg/kg of Compound I-17/I-19, male individual, 10 mg/kg
[6] = after single PO 10 mg/kg of Compound I-17/I-19, male mean
[7] = after single PO 80 mg/kg (so in the source) of Compound I-17/I-19, female individual, 80 mg/kg
[8] = after single PO 80 mg/kg (so in the source) of Compound I-17/I-19, female mean
[9] = after single PO 80 mg/kg (so in the source) of Compound I-17/I-19, male individual
[10] = after single PO 80 mg/kg (so in the source) of Compound I-17/I-19, male individual, 80 mg/kg
[11] = after single PO 80 mg/kg (so in the source) of Compound I-17/I-19, male mean

Clc1ccc(C2(OCC3OCCO3)c3ccccc3C3=NCCN32)cc1 (stereo not shown) [Compound I-19]
Tlast of Compound A (as titled) [1]: 8.00 h
Tmax of Compound A (as titled) [1]: 1.00 h
AUC0-inf of Compound A (as titled) [2]: 786 ng·h/mL and 1047 ng·h/mL
AUC0-last of Compound A (as titled) [2]: 739 ng·h/mL and 932 ng·h/mL
Cmax of Compound A (as titled) [2]: 258 ng/mL and 262 ng/mL
MRT0-inf of Compound A (as titled) [2]: 2.82 h and 3.68 h
MRT0-last of Compound A (as titled) [2]: 2.29 h and 2.65 h
T1/2 of Compound A (as titled) [2]: 2.23 h and 2.77 h
AUC0-inf of Compound A (as titled) [3]: 916 ng·h/mL
AUC0-last of Compound A (as titled) [3]: 836 ng·h/mL
Cmax of Compound A (as titled) [3]: 260 ng/mL
MRT0-inf of Compound A (as titled) [3]: 3.25 h
MRT0-last of Compound A (as titled) [3]: 2.47 h
T1/2 of Compound A (as titled) [3]: 2.50 h
Tlast of Compound A (as titled) [3]: 8.00 h
Tmax of Compound A (as titled) [3]: 1.00 h
Tlast of Compound A (as titled) [4]: 8.00 h
Tmax of Compound A (as titled) [4]: 1.00 h
AUC0-inf of Compound A (as titled) [5]: 843 ng·h/mL and 756 ng·h/mL
AUC0-last of Compound A (as titled) [5]: 801 ng·h/mL and 737 ng·h/mL
Cmax of Compound A (as titled) [5]: 312 ng/mL and 281 ng/mL
MRT0-inf of Compound A (as titled) [5]: 2.72 h and 2.50 h
MRT0-last of Compound A (as titled) [5]: 2.29 h and 2.31 h
T1/2 of Compound A (as titled) [5]: 1.93 h and 1.39 h
AUC0-inf of Compound A (as titled) [6]: 799 ng·h/mL
AUC0-last of Compound A (as titled) [6]: 769 ng·h/mL
Cmax of Compound A (as titled) [6]: 297 ng/mL
MRT0-inf of Compound A (as titled) [6]: 2.61 h
MRT0-last of Compound A (as titled) [6]: 2.30 h
T1/2 of Compound A (as titled) [6]: 1.66 h
Tlast of Compound A (as titled) [6]: 8.00 h
Tmax of Compound A (as titled) [6]: 1.00 h
Tlast of Compound A (after single PO 80 mg/kg (so in the source) of Compound I-17/I-19, female individual): 24.0 h
AUC0-inf of Compound A [7]: 982 ng·h/mL and 1387 ng·h/mL
AUC0-last of Compound A [7]: 919 ng·h/mL and 1108 ng·h/mL
Cmax of Compound A [7]: 160 ng/mL and 113 ng/mL
MRT0-inf of Compound A [7]: 7.98 h and 14.9 h
MRT0-last of Compound A [7]: 6.23 h and 8.76 h
T1/2 of Compound A [7]: 6.54 h and 10.7 h
Tmax of Compound A [7]: 0.500 h and 2.00 h
AUC0-inf of Compound A [8]: 1185 ng·h/mL
AUC0-last of Compound A [8]: 1013 ng·h/mL
Cmax of Compound A [8]: 137 ng/mL
MRT0-inf of Compound A [8]: 11.5 h
MRT0-last of Compound A [8]: 7.49 h
T1/2 of Compound A [8]: 8.61 h
Tlast of Compound A [8]: 24.0 h
Tmax of Compound A [8]: 1.25 h
Tlast of Compound A [9]: 24.0 h
Tmax of Compound A [9]: 1.00 h
AUC0-inf of Compound A [10]: 1022 ng·h/mL and 661 ng·h/mL
AUC0-last of Compound A [10]: 958 ng·h/mL and 622 ng·h/mL
Cmax of Compound A [10]: 136 ng/mL and 111 ng/mL
MRT0-inf of Compound A [10]: 8.63 h and 7.66 h
MRT0-last of Compound A [10]: 7.01 h and 6.08 h
T1/2 of Compound A [10]: 6.05 h and 6.28 h
AUC0-inf of Compound A [11]: 841 ng·h/mL
AUC0-last of Compound A [11]: 790 ng·h/mL
Cmax of Compound A [11]: 123 ng/mL
MRT0-inf of Compound A [11]: 8.14 h
MRT0-last of Compound A [11]: 6.54 h
T1/2 of Compound A [11]: 6.16 h
Tlast of Compound A [11]: 24.0 h
Tmax of Compound A [11]: 1.00 h
Cmax and AUC0-last of Compound A, compared to Compound I-17 (male and female dogs, PO): about 2.5 ×
Cmax of the analog (Compound I-17/I-19) (female dogs): 260 ng/mL
T1/2 of the analog (Compound I-17/I-19) (female dogs): 2.50 hours
Tmax of the analog (Compound I-17/I-19) (female dogs): 1 hour
Cmax of the analog (Compound I-17/I-19) (male dogs): 297 ng/mL
T1/2 of the analog (Compound I-17/I-19) (male dogs): 1.66 hours
Tmax of the analog (Compound I-17/I-19) (male dogs): 1 hour
plasma concentration of Compound I-17/I-19 (single PO 10 mg/kg, 0.500 h, female individual, 10 mg/kg): 257 ng/mL and 246 ng/mL
plasma concentration of Compound I-17/I-19 (single PO 10 mg/kg, 0.500 h, female mean): 252 ng/mL
plasma concentration of Compound I-17/I-19 (single PO 10 mg/kg, 0.500 h, male individual, 10 mg/kg): 259 ng/mL and 195 ng/mL
plasma concentration of Compound I-17/I-19 (single PO 10 mg/kg, 0.500 h, male mean): 227 ng/mL
plasma concentration of Compound I-17/I-19 (single PO 10 mg/kg, 1.00 h, female individual, 10 mg/kg): 258 ng/mL and 262 ng/mL
plasma concentration of Compound I-17/I-19 (single PO 10 mg/kg, 1.00 h, female mean): 260 ng/mL
plasma concentration of Compound I-17/I-19 (single PO 10 mg/kg, 1.00 h, male individual, 10 mg/kg): 312 ng/mL and 281 ng/mL
plasma concentration of Compound I-17/I-19 (single PO 10 mg/kg, 1.00 h, male mean): 297 ng/mL
plasma concentration of Compound I-17/I-19 (single PO 10 mg/kg, 2.00 h, female individual, 10 mg/kg): 186 ng/mL and 240 ng/mL
plasma concentration of Compound I-17/I-19 (single PO 10 mg/kg, 2.00 h, female mean): 213 ng/mL
plasma concentration of Compound I-17/I-19 (single PO 10 mg/kg, 2.00 h, male individual): 181 ng/mL
plasma concentration of Compound I-17/I-19 (single PO 10 mg/kg, 2.00 h, male mean): 181 ng/mL
plasma concentration of Compound I-17/I-19 (single PO 10 mg/kg, 4.00 h, female individual, 10 mg/kg): 50.7 ng/mL and 78.2 ng/mL
plasma concentration of Compound I-17/I-19 (single PO 10 mg/kg, 4.00 h, female mean): 64.4 ng/mL
plasma concentration of Compound I-17/I-19 (single PO 10 mg/kg, 4.00 h, male individual, 10 mg/kg): 64.2 ng/mL and 67.7 ng/mL
plasma concentration of Compound I-17/I-19 (single PO 10 mg/kg, 4.00 h, male mean): 66.0 ng/mL
plasma concentration of Compound I-17/I-19 (single PO 10 mg/kg, 6.00 h, female individual, 10 mg/kg): 27.8 ng/mL and 50.5 ng/mL
plasma concentration of Compound I-17/I-19 (single PO 10 mg/kg, 6.00 h, female mean): 39.1 ng/mL
plasma concentration of Compound I-17/I-19 (single PO 10 mg/kg, 6.00 h, male individual, 10 mg/kg): 27.3 ng/mL and 22.7 ng/mL
plasma concentration of Compound I-17/I-19 (single PO 10 mg/kg, 6.00 h, male mean): 25.0 ng/mL
plasma concentration of Compound I-17/I-19 (single PO 10 mg/kg, 8.00 h, female individual, 10 mg/kg): 14.6 ng/mL and 28.7 ng/mL
plasma concentration of Compound I-17/I-19 (single PO 10 mg/kg, 8.00 h, female mean): 21.7 ng/mL
plasma concentration of Compound I-17/I-19 (single PO 10 mg/kg, 8.00 h, male individual, 10 mg/kg): 15.2 ng/mL and 9.16 ng/mL
plasma concentration of Compound I-17/I-19 (single PO 10 mg/kg, 8.00 h, male mean): 12.2 ng/mL
plasma concentration of Compound I-17/I-19 (single PO 10 mg/kg, 24.0 h, female individual): BQL
plasma concentration of Compound I-17/I-19 (single PO 10 mg/kg, 24.0 h, male individual): BQL
Clinical observation (single PO 10 mg/kg, beagle dogs): diarrhea at 24 hours post-dose
plasma concentration of Compound I-17/I-19 (as titled) (0.500 h, female individual, 80 mg/kg): 160 ng/mL and 83.0 ng/mL
plasma concentration of Compound I-17/I-19 (as titled) (0.500 h, female mean): 121 ng/mL
plasma concentration of Compound I-17/I-19 (as titled) (0.500 h, male individual, 80 mg/kg): 102 ng/mL and 91.6 ng/mL
plasma concentration of Compound I-17/I-19 (as titled) (0.500 h, male mean): 96.8 ng/mL
plasma concentration of Compound I-17/I-19 (as titled) (2.00 h, female individual): 113 ng/mL
plasma concentration of Compound I-17/I-19 (as titled) (2.00 h, female mean): 113 ng/mL
plasma concentration of Compound I-17/I-19 (as titled) (2.00 h, male individual, 80 mg/kg): 94.9 ng/mL and 78.9 ng/mL
plasma concentration of Compound I-17/I-19 (as titled) (2.00 h, male mean): 86.9 ng/mL
plasma concentration of Compound I-17/I-19 (as titled) (4.00 h, female individual, 80 mg/kg): 87.3 ng/mL and 76.1 ng/mL
plasma concentration of Compound I-17/I-19 (as titled) (4.00 h, female mean): 81.7 ng/mL
plasma concentration of Compound I-17/I-19 (as titled) (4.00 h, male individual, 80 mg/kg): 87.4 ng/mL and 60.3 ng/mL
plasma concentration of Compound I-17/I-19 (as titled) (4.00 h, male mean): 73.8 ng/mL
plasma concentration of Compound I-17/I-19 (as titled) (6.00 h, female individual, 80 mg/kg): 49.1 ng/mL and 57.9 ng/mL
plasma concentration of Compound I-17/I-19 (as titled) (6.00 h, female mean): 53.5 ng/mL
plasma concentration of Compound I-17/I-19 (as titled) (6.00 h, male individual, 80 mg/kg): 60.4 ng/mL and 35.4 ng/mL
plasma concentration of Compound I-17/I-19 (as titled) (6.00 h, male mean): 47.9 ng/mL
plasma concentration of Compound I-17/I-19 (as titled) (8.00 h, female individual, 80 mg/kg): 32.5 ng/mL and 52.0 ng/mL
plasma concentration of Compound I-17/I-19 (as titled) (8.00 h, female mean): 42.3 ng/mL
plasma concentration of Compound I-17/I-19 (as titled) (8.00 h, male individual, 80 mg/kg): 43.8 ng/mL and 20.9 ng/mL
plasma concentration of Compound I-17/I-19 (as titled) (8.00 h, male mean): 32.4 ng/mL
plasma concentration of Compound I-17/I-19 (as titled) (24.0 h, female individual, 80 mg/kg): 6.70 ng/mL and 18.2 ng/mL
plasma concentration of Compound I-17/I-19 (as titled) (24.0 h, female mean): 12.4 ng/mL
plasma concentration of Compound I-17/I-19 (as titled) (24.0 h, male individual, 80 mg/kg): 7.39 ng/mL and 4.28 ng/mL
plasma concentration of Compound I-17/I-19 (as titled) (24.0 h, male mean): 5.83 ng/mL
plasma concentration of Compound I-17/I-19 (as titled) ([…] h, female mean): 116 ng/mL
plasma concentration of Compound I-17/I-19 (as titled) ([…] h, male mean): 123 ng/mL
